Reference: paper PMC8333425, “Discovery of a dual Ras and ARF6 inhibitor from a GPCR endocytosis screen” (Nature Communications, 2021)

Assays:
Test in all cases: KINOMEscan kinase binding assay
[1] = target: T1, 384 kinases from the human genome (Homo sapiens, UniProt Q9BVS4); conditions: kinase RIOK2 (Entrez RIOK2)
T1 construct: purchased Eurofin/DiscoverX
Summary of the method: (§1)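 A panel of 384 human kinases was profiled by KINOMEscan binding in the presence of 10 µM compound. Kinase–ligand binding was given as percent of DMSO control, averaged from duplicates in a single run, with an S(10) selectivity score.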

[2] = target: T2, 384 kinases from the human genome (Homo sapiens, UniProt Q86V86); conditions: kinase PIM3 (Entrez PIM3)
T2 construct: purchased Eurofin/DiscoverX
Summary of the method: as §1

[3] = target: T3, 384 kinases from the human genome (Homo sapiens, UniProt Q9BZL6); conditions: kinase PRKD2 (Entrez PRKD2)
T3 construct: purchased Eurofin/DiscoverX
Summary of the method: as §1

[4] = target: T4, 384 kinases from the human genome (Homo sapiens, UniProt Q16512); conditions: kinase PKN1 (Entrez PKN1)
T4 construct: purchased Eurofin/DiscoverX
Summary of the method: as §1

[5] = target: T5, 384 kinases from the human genome (Homo sapiens, UniProt Q16659); conditions: kinase ERK3 (Entrez MAPK6)
T5 construct: purchased Eurofin/DiscoverX
T5 sequence (Q16659 whole entry): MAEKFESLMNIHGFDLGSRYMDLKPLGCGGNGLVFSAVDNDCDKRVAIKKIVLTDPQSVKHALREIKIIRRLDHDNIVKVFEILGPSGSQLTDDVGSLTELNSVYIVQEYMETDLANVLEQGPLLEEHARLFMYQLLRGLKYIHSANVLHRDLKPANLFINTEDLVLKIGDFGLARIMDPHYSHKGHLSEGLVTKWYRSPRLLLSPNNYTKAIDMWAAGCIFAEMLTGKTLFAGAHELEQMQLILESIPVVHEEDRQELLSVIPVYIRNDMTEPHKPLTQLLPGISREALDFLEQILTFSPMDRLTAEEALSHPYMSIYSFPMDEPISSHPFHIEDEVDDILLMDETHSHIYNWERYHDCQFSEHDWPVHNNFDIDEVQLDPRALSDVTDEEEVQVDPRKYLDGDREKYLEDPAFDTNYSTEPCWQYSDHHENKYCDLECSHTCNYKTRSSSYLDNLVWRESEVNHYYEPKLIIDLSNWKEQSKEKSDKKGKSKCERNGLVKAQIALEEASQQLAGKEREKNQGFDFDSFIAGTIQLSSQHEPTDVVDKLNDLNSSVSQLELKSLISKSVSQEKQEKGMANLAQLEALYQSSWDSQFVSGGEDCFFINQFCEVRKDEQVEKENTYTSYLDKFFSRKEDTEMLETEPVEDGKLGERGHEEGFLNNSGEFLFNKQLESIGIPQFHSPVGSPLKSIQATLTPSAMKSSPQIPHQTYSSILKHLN
Summary of the method: as §1

[6] = target: T6, 384 kinases from the human genome (Homo sapiens, UniProt O00444); conditions: kinase PLK4 (Entrez PLK4)
T6 construct: purchased Eurofin/DiscoverX
Summary of the method: as §1

[7] = target: T7, 384 kinases from the human genome (Homo sapiens, UniProt O95819); conditions: kinase MAP4K4 (Entrez MAP4K4)
T7 construct: purchased Eurofin/DiscoverX
Summary of the method: as §1

[8] = target: T8, 384 kinases from the human genome (Homo sapiens, UniProt P41743); conditions: kinase PRKCI (Entrez PRKCI)
T8 construct: purchased Eurofin/DiscoverX
Summary of the method: as §1

[9] = target: T9, 384 kinases from the human genome (Homo sapiens, UniProt O95835); conditions: kinase LATS1 (Entrez LATS1)
T9 construct: purchased Eurofin/DiscoverX
Summary of the method: as §1

[10] = target: T10, 384 kinases from the human genome (Homo sapiens, UniProt Q13233); conditions: kinase MAP3K1 (Entrez MAP3K1)
T10 construct: purchased Eurofin/DiscoverX
T10 sequence (Q13233 whole entry): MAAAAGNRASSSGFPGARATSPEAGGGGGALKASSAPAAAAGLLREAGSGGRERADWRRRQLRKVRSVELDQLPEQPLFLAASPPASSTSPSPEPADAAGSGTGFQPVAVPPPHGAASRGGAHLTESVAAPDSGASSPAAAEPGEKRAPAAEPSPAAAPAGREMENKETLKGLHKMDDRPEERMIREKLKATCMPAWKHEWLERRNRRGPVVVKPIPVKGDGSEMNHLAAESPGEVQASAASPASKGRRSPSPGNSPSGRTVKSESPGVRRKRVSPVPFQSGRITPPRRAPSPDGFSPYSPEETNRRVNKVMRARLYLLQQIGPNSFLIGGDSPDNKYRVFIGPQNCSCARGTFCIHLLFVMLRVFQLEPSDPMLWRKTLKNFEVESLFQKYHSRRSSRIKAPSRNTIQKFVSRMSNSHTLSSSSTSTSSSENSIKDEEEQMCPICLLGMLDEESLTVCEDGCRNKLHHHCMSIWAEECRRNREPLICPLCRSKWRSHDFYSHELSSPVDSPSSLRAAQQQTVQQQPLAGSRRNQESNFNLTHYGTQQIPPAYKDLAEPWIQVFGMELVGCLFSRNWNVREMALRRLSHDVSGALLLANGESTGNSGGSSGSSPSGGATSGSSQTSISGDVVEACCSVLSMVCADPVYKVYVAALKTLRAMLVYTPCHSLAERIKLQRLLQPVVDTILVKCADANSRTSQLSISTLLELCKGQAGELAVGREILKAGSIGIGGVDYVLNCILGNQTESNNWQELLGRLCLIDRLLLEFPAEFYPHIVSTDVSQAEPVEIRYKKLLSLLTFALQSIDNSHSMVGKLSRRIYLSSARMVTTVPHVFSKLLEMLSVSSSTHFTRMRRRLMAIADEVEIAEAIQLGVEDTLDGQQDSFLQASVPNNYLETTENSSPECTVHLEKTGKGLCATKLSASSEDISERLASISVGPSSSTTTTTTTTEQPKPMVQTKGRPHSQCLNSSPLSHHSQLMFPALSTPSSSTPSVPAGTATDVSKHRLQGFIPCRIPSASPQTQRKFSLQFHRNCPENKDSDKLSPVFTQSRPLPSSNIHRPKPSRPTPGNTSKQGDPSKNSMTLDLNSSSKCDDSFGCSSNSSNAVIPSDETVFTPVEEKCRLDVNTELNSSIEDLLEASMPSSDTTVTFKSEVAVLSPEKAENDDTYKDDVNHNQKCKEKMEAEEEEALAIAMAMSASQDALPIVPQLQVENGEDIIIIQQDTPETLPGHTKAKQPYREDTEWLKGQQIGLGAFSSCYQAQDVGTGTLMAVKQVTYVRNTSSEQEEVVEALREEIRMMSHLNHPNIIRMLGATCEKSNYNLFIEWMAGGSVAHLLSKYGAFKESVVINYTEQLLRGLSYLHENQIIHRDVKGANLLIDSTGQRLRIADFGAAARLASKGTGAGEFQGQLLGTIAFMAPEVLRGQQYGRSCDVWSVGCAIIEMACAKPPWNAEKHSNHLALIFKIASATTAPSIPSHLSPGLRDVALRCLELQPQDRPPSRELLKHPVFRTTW
Summary of the method: as §1

[11] = target: T11, 384 kinases from the human genome (Homo sapiens, UniProt Q13882); conditions: kinase BRK (Entrez PTK6)
T11 construct: purchased Eurofin/DiscoverX
T11 sequence (Q13882 whole entry): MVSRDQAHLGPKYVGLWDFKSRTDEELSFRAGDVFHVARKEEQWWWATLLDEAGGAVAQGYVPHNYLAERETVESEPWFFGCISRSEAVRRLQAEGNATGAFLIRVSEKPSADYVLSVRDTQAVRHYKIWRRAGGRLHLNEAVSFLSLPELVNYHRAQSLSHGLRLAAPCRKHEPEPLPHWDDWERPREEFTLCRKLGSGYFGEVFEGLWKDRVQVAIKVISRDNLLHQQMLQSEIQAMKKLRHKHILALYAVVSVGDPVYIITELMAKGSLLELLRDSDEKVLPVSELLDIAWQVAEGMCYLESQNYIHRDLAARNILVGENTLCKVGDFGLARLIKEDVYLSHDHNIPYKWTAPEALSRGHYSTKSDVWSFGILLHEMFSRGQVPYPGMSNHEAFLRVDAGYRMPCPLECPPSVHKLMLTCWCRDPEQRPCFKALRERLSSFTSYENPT
Summary of the method: as §1

[12] = target: T12, 384 kinases from the human genome (Homo sapiens, UniProt O60285); conditions: kinase ARK5 (Entrez NUAK1)
T12 construct: purchased Eurofin/DiscoverX
Summary of the method: as §1

[13] = target: T13, 384 kinases from the human genome (Homo sapiens, UniProt Q12851); conditions: kinase MAP4K2 (Entrez MAP4K2)
T13 construct: purchased Eurofin/DiscoverX
Summary of the method: as §1

[14] = target: T14, 384 kinases from the human genome (Homo sapiens, UniProt Q9Y463); conditions: kinase DYRK1B (Entrez DYRK1B)
T14 construct: purchased Eurofin/DiscoverX
Summary of the method: as §1

[15] = target: T15, 384 kinases from the human genome (Homo sapiens, UniProt Q02779); conditions: kinase MLK2 (Entrez MAP3K10)
T15 construct: purchased Eurofin/DiscoverX
T15 sequence (Q02779 whole entry): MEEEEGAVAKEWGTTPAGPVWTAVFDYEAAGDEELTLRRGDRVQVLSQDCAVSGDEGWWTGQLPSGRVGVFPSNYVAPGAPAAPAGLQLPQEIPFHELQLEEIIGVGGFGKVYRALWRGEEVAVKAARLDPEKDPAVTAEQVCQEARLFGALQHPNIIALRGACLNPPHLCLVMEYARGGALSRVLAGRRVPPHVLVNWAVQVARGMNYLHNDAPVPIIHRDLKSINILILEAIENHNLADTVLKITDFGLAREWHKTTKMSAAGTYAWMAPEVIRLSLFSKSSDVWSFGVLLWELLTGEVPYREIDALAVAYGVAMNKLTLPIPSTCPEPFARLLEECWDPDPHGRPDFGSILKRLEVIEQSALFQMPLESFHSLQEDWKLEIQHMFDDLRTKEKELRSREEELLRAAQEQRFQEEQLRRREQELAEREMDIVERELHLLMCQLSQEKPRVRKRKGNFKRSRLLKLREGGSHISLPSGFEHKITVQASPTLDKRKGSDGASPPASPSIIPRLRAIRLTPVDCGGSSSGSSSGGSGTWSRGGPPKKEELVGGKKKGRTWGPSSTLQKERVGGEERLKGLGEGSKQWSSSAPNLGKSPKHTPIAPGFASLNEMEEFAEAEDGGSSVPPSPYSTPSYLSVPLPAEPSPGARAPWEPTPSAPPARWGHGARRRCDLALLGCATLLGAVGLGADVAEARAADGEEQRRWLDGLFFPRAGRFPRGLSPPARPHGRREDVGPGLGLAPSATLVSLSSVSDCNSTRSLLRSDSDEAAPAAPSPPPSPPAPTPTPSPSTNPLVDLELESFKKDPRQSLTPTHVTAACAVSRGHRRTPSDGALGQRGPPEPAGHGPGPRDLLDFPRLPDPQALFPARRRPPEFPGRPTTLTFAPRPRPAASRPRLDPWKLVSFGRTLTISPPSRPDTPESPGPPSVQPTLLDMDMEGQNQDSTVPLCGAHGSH
Summary of the method: as §1

[16] = target: T16, 384 kinases from the human genome (Homo sapiens, UniProt Q9NWZ3); conditions: kinase IRAK4 (Entrez IRAK4)
T16 construct: purchased Eurofin/DiscoverX
Summary of the method: as §1

[17] = target: T17, 384 kinases from the human genome (Homo sapiens, UniProt P09769); conditions: kinase FGR (Entrez FGR)
T17 construct: purchased Eurofin/DiscoverX
Summary of the method: as §1

[18] = target: T18, 384 kinases from the human genome (Homo sapiens, UniProt P25098); conditions: kinase GRK2 (Entrez ADRBK1)
T18 construct: purchased Eurofin/DiscoverX
Summary of the method: as §1

[19] = target: T19, 384 kinases from the human genome (Homo sapiens, UniProt Q8N5S9); conditions: kinase CAMKK1 (Entrez CAMKK1)
T19 construct: purchased Eurofin/DiscoverX
Summary of the method: as §1

[20] = target: T20, 384 kinases from the human genome (Homo sapiens, UniProt Q9NRH2); conditions: kinase SNRK (Entrez SNRK)
T20 construct: purchased Eurofin/DiscoverX
Summary of the method: as §1

[21] = target: T21, 384 kinases from the human genome (Homo sapiens, UniProt P53350); conditions: kinase PLK1 (Entrez PLK1)
T21 construct: purchased Eurofin/DiscoverX
Summary of the method: as §1

[22] = target: T22, 384 kinases from the human genome (Homo sapiens, UniProt P23443); conditions: kinase S6K1 (Entrez RPS6KB1)
T22 construct: purchased Eurofin/DiscoverX
Summary of the method: as §1

[23] = target: T23, 384 kinases from the human genome (Homo sapiens, UniProt P54646); conditions: kinase AMPK-alpha2 (Entrez PRKAA2)
T23 construct: purchased Eurofin/DiscoverX
T23 sequence (P54646 whole entry): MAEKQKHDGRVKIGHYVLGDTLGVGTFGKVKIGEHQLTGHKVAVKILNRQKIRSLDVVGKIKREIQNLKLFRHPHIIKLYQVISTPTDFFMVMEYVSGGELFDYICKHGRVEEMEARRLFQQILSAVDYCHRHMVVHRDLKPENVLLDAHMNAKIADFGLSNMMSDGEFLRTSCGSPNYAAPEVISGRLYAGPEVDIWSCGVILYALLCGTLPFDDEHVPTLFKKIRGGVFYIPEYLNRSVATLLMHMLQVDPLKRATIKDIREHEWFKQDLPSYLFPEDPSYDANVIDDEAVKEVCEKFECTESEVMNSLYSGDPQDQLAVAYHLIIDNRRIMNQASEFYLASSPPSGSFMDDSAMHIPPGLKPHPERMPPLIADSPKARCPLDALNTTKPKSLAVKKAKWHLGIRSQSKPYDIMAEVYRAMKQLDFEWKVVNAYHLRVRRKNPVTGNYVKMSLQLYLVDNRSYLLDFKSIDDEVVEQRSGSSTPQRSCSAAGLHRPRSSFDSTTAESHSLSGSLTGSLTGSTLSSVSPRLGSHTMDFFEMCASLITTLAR
Summary of the method: as §1

[24] = target: T24, 384 kinases from the human genome (Homo sapiens, UniProt Q9Y2H9); conditions: kinase MAST1 (Entrez MAST1)
T24 construct: purchased Eurofin/DiscoverX
Summary of the method: as §1

[25] = target: T25, 384 kinases from the human genome (Homo sapiens, UniProt Q8NI60); conditions: kinase ADCK3 (Entrez CABC1)
T25 construct: purchased Eurofin/DiscoverX
T25 sequence (Q8NI60 163-647): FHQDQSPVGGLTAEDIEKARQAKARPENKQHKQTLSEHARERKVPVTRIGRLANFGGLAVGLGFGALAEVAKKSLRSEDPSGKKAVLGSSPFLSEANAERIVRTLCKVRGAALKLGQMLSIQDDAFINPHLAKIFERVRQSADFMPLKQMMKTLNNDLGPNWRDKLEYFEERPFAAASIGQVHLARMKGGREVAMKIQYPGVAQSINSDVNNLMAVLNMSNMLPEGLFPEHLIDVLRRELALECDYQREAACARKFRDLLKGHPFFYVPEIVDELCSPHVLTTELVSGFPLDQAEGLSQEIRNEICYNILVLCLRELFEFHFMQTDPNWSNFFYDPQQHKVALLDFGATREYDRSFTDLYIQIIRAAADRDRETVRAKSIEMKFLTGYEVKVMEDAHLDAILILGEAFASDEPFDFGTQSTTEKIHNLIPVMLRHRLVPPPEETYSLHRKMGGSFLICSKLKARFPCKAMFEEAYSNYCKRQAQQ
Summary of the method: as §1

[26] = target: T26, 384 kinases from the human genome (Homo sapiens, UniProt Q9P286); conditions: kinase PAK7 (Entrez PAK7)
T26 construct: purchased Eurofin/DiscoverX
Summary of the method: as §1

SMILES: CC(C)C(=O)N1CCN(c2ccc(NC(=O)c3cc4ccccc4o3)cc2Cl)CC1 [Compound 21]
- Percent Control [1]: 100%
- Percent Control [2]: 90%
- Percent Control [3]: 100%
- Percent Control [4]: 94%
- Percent Control [5]: 90%
- Percent Control [6]: 89%
- Percent Control [7]: 66%
- Percent Control [8]: 100%
- Percent Control [9]: 98%
- Percent Control [10]: 92%
- Percent Control [11]: 88%
- Percent Control [12]: 97%
- Percent Control [13]: 100%
- Percent Control [14]: 79%
- Percent Control [15]: 96%
- Percent Control [16]: 76%
- Percent Control [17]: 73%
- Percent Control [18]: 99%
- Percent Control [19]: 100%
- Percent Control [20]: 78%
- Percent Control [21]: 77%
- Percent Control [22]: 94%
- Percent Control [23]: 85%
- Percent Control [24]: 100%
- Percent Control [25]: 64%
- Percent Control [26]: 85%
